Test results reported in patent US20240050409A1, “Methods and Compositions for Treating Psychotic Disorders” (SOUND PHARMACEUTICALS INCORPORATED, priority 2014, published 2024).
Entries after “also recorded” stand apart in the source; their conditions may differ. Read-outs that look alike come from different tables or passages of the source.

What was measured:
NVHL rats = assay: Prepulse inhibition of the acoustic startle response (PPI) in NVHL rats; assay type: in vivo, Sprague-Dawley rats; settings: adult NVHL rats
Method: To assess whether juvenile oxidative stress leads to behavioral deficits, a behavioral paradigm was used for testing in both animal models and schizophrenia patients. Prepulse inhibition of the acoustic startle response (PPI) is a measure of sensorimotor gating that is reduced in patients (Geyer and Braff, 1987) and NVHL rats (Lipska et al., 1995). PPI was tested in adult sham (n=11), NAC-treated sham (n=12), NVHL (n=9), and NAC-treated NVHL rats (n=17). In addition to loss of PVI maturation and electrophysiological anomalies, developmental oxidative stress in juvenile NVHL rats can cause schizophrenia-relevant adult behavioral deficits.
The beneficial effect of NAC treatment includes a large postnatal treatment that starts prior to the lesion and stops once rats become young adults. For full translational value one determines whether NAC is efficacious when started at an age that corresponds to the time when prodromal stages can be identified in humans. In another set of rats, NAC was administered in the drinking water starting at P35, an age that in rats is equivalent to early adolescence. For PPI deficits was tested in adult SHAM (n=15), untreated NVHL (n=12), and NAC-treated NVHL rats (n=14).
Ebselen is a glutathione peroxidase (GPx) mimic (Muller et al., 1984) that induces GPx expression (Kil et al., 2007) and enhances GSH levels in neurons, replenishing GSH depleted by neurotoxic mechanisms (Pawlas and Malecki, 2007). PPI was tested in adult vehicle-treated SHAM (n=10), Ebselen-treated SHAM (n=7), vehicle-treated NVHL (n=8), and Ebselen-treated NVHL rats (n=9), and Ebselen treatment during adolescence reversed PPI deficits in NVHL rats (as shown in FIG. 15D).
In another group of rats, the effects of the NADPH oxidase inhibitor Apocynin was assessed while delivering through juvenile and adolescent stages. PPI was tested in adult vehicle-treated SHAM (n=10), apocynin-treated SHAM (n=11), vehicle treated NHVL (n=7), and apocynin-treated NVHL (n=5). As illustrated in FIG. 15C a reversal of PPI deficits was observed.
Antioxidant pretreatment regimen: NAC (BioAdvantexPharma, Mississauga, Ontario, Canada) was administered in the drinking water at 900 mg/l. NAC treatment started at P5 or at P35, and previous work in mice has shown that NAC consumed by the dam is transmitted to the pups through her milk (das Neves Duarte et al., 2012). NAC treatment ended at P50. Fresh solutions were prepared every 2-3 days. Ebselen (Sound Pharmaceuticals Inc., Seattle, WA) was administered i.p. 5 days a week starting at P35 until the day of PPI testing (P60). Stock ebselen solution (20 mg/ml DMSO, frozen aliquots) was diluted 1:5 in sterile water and administered at a dose of 10 mg/kg. Control animals received an equivalent concentration of DMSO diluted 1:5 in water. Apocynin (Sigma-Aldrich, St. Louis, MO) was administered in the drinking water at a target dose of 100 mg/kg (Nwokocha et al., 2013). Prior to weaning at P21, drinking water contained a dose of 2 g apocynin per 0.5 1 of water, to ensure delivery through the dam's milk. Apocynin concentration was lowered after weaning to 750 mg/1 to best approximate the target dose. Treatment lasted from P5 to P50 with fresh solutions prepared every other day.
Prepulse inhibition: Starting at P60, both male and female rats were tested for PPI, as described previously (Feleder et al., 2010). As PPI deficits in NVHL rats are most evident when rats are challenged with apomorphine (Lipska et al., 1995), we injected apomorphine (0.1 mg/kg, i.p.) immediately prior to the PPI test session. Rats were placed in a sound- attenuated startle chamber (San Diego Instruments, San Diego, CA) with a 70 dB background white noise. After a 5 min adaptation period, the PPI test was initiated with pseudorandom trials every 15 to 25 seconds. Either pulse (120 dB), prepulse (75 dB, 80 dB, or 85 dB), no pulse or prepulse +pulse were delivered. […]

[1] = Solubility of ebselen in aqueous solutions; assay type: physicochemical; settings: 25° Celsius
Method: Ebselen is the only active ingredient administered in a formulation. […] Ebselen acts as a catalyst and is not consumed during detoxification reactions (Muller et. al, 1988). An embodiment of an ebselen formulation is >99% pure as confirmed by HPLC. The synthesis of this formulation is provided by Rhodia Pharma Solutions and includes capsules that are hermetically sealed in blister packs. Each capsule contains 200 mg the ebselen formulation or SPI-1000 (placebo).

[2] = Ph-1 placebo-controlled, randomized, single ascending dose study: pharmacokinetics; assay type: in vivo; settings: humans, single dose 200 mg to 1600 mg
Method: (§1) Ebselen has excellent oral availability (Fisher et al., 1988). Brain level was about 20% of the plasma level (Imai, et al., 2001, Ullrich, et al., 1996). […] A Ph-1 study was conducted in 32 humans in a placebo-controlled, randomized, single ascending dose design. Ebselen ranged from 200 mg to 1600 mg in the formulation. (1) Pharmacokinetics: The PK parameters of ebselen and its three metabolites were published (Lynch, et al., 2009). […] The tabulated side effects were published in Lynch, et al., 2009.

[3] = system: healthy males and females; assay: Ph-1 placebo-controlled, randomized, single ascending dose study: safety; assay type: in vivo, humans
Method: as §1

[4] = Repeat dosing 28-day study, monkey; settings: cynomolgus monkey, in vivo, Cynomolgus monkeys, read-out: no-observable-effect-level (NOAEL)
Method: (§2) Seven acute and repeated dose toxicology studies were conducted in Sprague-Dawley rats, Sinclair miniature swine, and Cynomolgus monkey, and three genotoxicology studies.

[5] = Repeat dosing 28-day study, mini-pig; design: species or system Sinclair miniature swine; settings: Sinclair, minipig, in vivo, read-out: no-observable-effect-level (NOAEL)
Method: as §2

rats [6] = assay: Repeat dosing 28-day study, rats; assay type: in vivo, Sprague-Dawley rats
Method: as §2

rats [7] = assay: Chronic toxicity studies 26 and 52 weeks, rats; assay type: in vivo
Method: as §2

mini-pigs = assay: Chronic toxicity studies 26 and 52 weeks, mini-pigs; assay type: in vivo
Method: as §2

[8] = in vivo; cited from earlier work
[9] = in vivo; cited from earlier work; remark: listed apart in the source
neurons = settings: cited from earlier work
[10] = system: N-methyl-D-asparatate receptors redox modulatory site; settings: cited from earlier work
[11] = 32 humans, single dose 200 mg to 1600 mg

## COc1cc(C(C)=O)ccc1O [Apocynin]
NVHL rats; drinking water, target dose 100 mg/kg, P5 to P50, 100 mg/kg
  effect on PPI deficit: prevented; also recorded: reversal
NVHL rats; drinking water, target dose 100 mg/kg, P5 to P50, listed as apocynin, 100 mg/kg
  effect on PPI deficit: significant lesion by treatment interaction

## O=c1c2ccccc2[se]n1-c1ccccc1 [Ebselen, 2-Phenyl-1,2-benzisoselenazol-3(2H)-one]
[1]
  solubility in aqueous solutions: slightly soluble
[2]; both sexes, human, in vivo, oral, range of means
  Cmax: 30.3 to 83.4 ng/mL
[2]; both sexes, human, in vivo, oral, range of means, read-out: mean AUC0-t
  AUC(0-t): 117 to 881 ng·h/mL
[2]; both sexes, human, in vivo, oral, range of means, read-out: mean t1/2
  half-life: 6.4 to 16.7 h
[2]; both sexes, human, in vivo, oral, range of medians, read-out: median Tmax
  Tmax: 1.5 to 2.3 h
[2]
  predominate metabolite: 2-glucuronyl selenobenzanilide
[3]; [11]
  serious adverse events or discontinuation due to an AE: no serious adverse events
  severity of AEs: mild or moderate
  trends in clinical laboratory and ECG findings: No treatment- or dose-related trends
[3]; capsules, single oral dose up to 1600 mg
  safety and tolerability: safe and well tolerated
[4]
  NOAEL at 28 days: 2000 mg/kg
[5]
  NOAEL at 28 days: > 2000 mg/kg
Rats [6]
  no-observable-effect-level (NOAEL): not identified
Rats [7]
  non-toxic effect level: 31.6 mg/kg
mini-pigs
  non-toxic effect level: 178 mg/kg
NVHL rats; 10 mg/kg i.p. 5 days a week from P35 until PPI testing, 10 mg/kg
  effect on PPI deficit: reversed; also recorded: significant lesion status by treatment interaction
NVHL rats; 10 mg/kg i.p. 5 days a week from P35 until PPI testing, listed as ebselen, 10 mg/kg
  effect on PPI deficit: prevented
[8]
  oral availability: excellent
[9]
  brain level as share of the plasma level: about 20%
neurons
  GSH levels in neurons (basal and stressed conditions): increased
neurons; combined with glutamate
  glutamate-induced GSH depletion: neutralized; also recorded: Neuroprotective effect
neurons; listed as ebselen
  GSH levels in neurons (basal and stressed conditions): dose-dependently increases; also recorded: dose-dependent rise
[10]
  effect on NMDA receptor redox modulatory site: modulates
  neuron viability: increases
